The record followed here is article PMC6934184, “Selective DNA-PKcs inhibition extends the therapeutic index of localized radiotherapy and chemotherapy” (The Journal of Clinical Investigation, 2019).

The assay deals with T1, STK24 (MST3) (Homo sapiens, UniProt Q9Y6E0).
T1 construct: purchased Thermo Fisher Scientific (Life Technologies) SelectScreen
The experiment in a line: SelectScreen Z'LYTE. The class given is biochemical. The essentials:
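Percent values come from Thermo SelectScreen profiling of NU5455, combining activity and binding assays. CSF1R was run in Z'LYTE format at Km app ATP, and CAMK1 in Adapta format with ATP listed at 10.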

T1 sequence (Q9Y6E0 whole entry): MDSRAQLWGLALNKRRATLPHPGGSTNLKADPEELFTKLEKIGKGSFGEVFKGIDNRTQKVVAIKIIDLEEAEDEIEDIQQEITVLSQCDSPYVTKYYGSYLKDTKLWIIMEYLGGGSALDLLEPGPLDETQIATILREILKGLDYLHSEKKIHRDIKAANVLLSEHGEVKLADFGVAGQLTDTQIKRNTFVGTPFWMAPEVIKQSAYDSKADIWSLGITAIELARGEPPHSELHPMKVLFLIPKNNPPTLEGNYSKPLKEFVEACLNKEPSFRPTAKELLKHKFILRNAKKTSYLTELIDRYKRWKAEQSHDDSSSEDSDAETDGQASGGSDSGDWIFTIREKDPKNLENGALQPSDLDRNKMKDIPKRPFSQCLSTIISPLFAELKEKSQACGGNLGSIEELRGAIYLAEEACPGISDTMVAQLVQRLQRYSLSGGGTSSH

Take `CN(C(=O)CN1CCOCC1)c1ccc2sc3c(-c4cccc5c(=O)cc(N6CC7CCC(C6)O7)oc45)cccc3c2c1` [NU5455]: the inhibition at 1 µM was 4.1%.

The inhibition is the change of the read-out against control, counted positive when it falls.
